In patent publication US20240218022A1, “ANTI-VISTA MACROCYCLIC PEPTIDES AND COMPOSITIONS” (BRISTOL-MYERS SQUIBB COMPANY, priority 2022, published 2024):
Read-outs that look alike come from different tables or passages of the source. Positions of bridges follow the written chain, without caps; N, C: chain ends. Non-standard residues stand in square brackets, D forms with d. Residues, ends and D or L forms follow the SMILES beside them. 2Nal = N[C@@H](Cc1ccc2ccccc2c1)C(=O)O; Ahp(2) = CCCCC[C@H](N)C(=O)O; NHexGly = CCCCCCNCC(=O)O; Nle = CCCC[C@H](N)C(=O)O; Orn = NCCC[C@H](N)C(=O)O; Dab = NCC[C@H](N)C(=O)O; Dap = NC[C@H](N)C(=O)O

Target: T1, mouse VISTA (mVISTA) (Mus musculus, UniProt Q9D659)
T1 construct: expressed in transfected cells; host or cells: Human embryonic kidney 293T cells
T1 sequence (Q9D659 33-308): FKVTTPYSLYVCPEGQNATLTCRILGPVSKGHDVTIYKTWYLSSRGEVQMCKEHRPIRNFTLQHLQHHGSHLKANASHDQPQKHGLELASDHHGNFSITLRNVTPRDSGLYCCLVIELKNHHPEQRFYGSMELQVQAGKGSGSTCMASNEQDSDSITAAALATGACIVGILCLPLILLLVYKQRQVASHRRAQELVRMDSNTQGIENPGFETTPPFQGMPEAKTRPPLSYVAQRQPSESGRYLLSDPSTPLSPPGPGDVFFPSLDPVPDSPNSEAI
Assay: Cell-Based Binding High-Content Assay For mVISTA (HC CBA mVISTA)
Conditions: read-out: HC CBA mVISTA IC50
Method in brief: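 293T cells expressing mouse VISTA, with compounds added either after seeding ("no wash") or before seeding and then washed out after 1 h. Biotinylated peptide 2 nM for 30 min at room temperature, then detection with Alexa 647–streptavidin. After fixation with Hoechst stain, plates were high-content imaged; IC50 from four-parameter logistic fit.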

[1] = 293T cells expressing mouse VISTA, competition with biotinylated peptide (2 nM)

SMILES | IC50 [1] | IC50
CCCCCCN1CC(=O)N[C@@H](Cc2ccc(O)cc2)C(=O)N[C@@H](C(C)C)C(=O)NCC(=O)N[C@@H](CCCNC(=N)N)C(=O)N[C@@H](CC(C)C)C(=O)N[C@@H](CCCCC)C(=O)N2CCC[C@H]2C(=O)N[C@@H](C(C)C)C(=O)N[C@@H](CC(=O)O)C(=O)N[C@H](C(=O)N[C@@H](CO)C(=O)N[C@@H](CCCN)C(=O)N[C@@H](CC(N)=O)C(=O)O)CSCC(=O)N[C@@H](Cc2ccc3ccccc3c2)C(=O)N[C@@H](Cc2ccc(O)cc2)C(=O)N[C@@H](CC(=O)O)C1=O [Example 1159] ({CH2CO}-[2Nal]YD[NHexGly]YVGRL[Ahp(2)]PVDCS[Orn]N-OH; thioether N-14) | 17.2 nM | 
CCCCCCN1CC(=O)N[C@@H](Cc2ccc(O)cc2)C(=O)N[C@@H](C(C)C)C(=O)NCC(=O)N[C@@H](CCCNC(=N)N)C(=O)N[C@@H](CC(C)C)C(=O)N[C@@H](CCCCC)C(=O)N2CCC[C@H]2C(=O)N[C@@H](C(C)C)C(=O)N[C@@H](CC(=O)O)C(=O)N[C@H](C(=O)N[C@@H](CO)C(=O)N[C@@H](CCCN)C(=O)N[C@@H](CCC(N)=O)C(=O)O)CSCC(=O)N[C@@H](Cc2ccc3ccccc3c2)C(=O)N[C@@H](Cc2ccc(O)cc2)C(=O)N[C@@H](CC(=O)O)C1=O [Example 1160] ({CH2CO}-[2Nal]YD[NHexGly]YVGRL[Ahp(2)]PVDCS[Orn]Q-OH; thioether N-14) | 37.1 nM | 
CCCCCCN1CC(=O)N[C@@H](Cc2ccc(O)cc2)C(=O)N[C@@H](C(C)C)C(=O)NCC(=O)N[C@@H](CCCNC(=N)N)C(=O)N[C@@H](CC(C)C)C(=O)N[C@@H](CCCCC)C(=O)N2CCC[C@H]2C(=O)N[C@@H](C(C)C)C(=O)N[C@@H](CC(=O)O)C(=O)N[C@H](C(=O)N[C@@H](CO)C(=O)N[C@@H](CN)C(=O)N[C@@H](CC(N)=O)C(=O)O)CSCC(=O)N[C@@H](Cc2ccc3ccccc3c2)C(=O)N[C@@H](Cc2ccc(O)cc2)C(=O)N[C@@H](CC(=O)O)C1=O [Example 1161] ({CH2CO}-[2Nal]YD[NHexGly]YVGRL[Ahp(2)]PVDCS[Dap]N-OH; thioether N-14) | 22.7 nM | 
CCCCCCN1CC(=O)N[C@@H](Cc2ccc(O)cc2)C(=O)N[C@@H](C(C)C)C(=O)NCC(=O)N[C@@H](CCCNC(=N)N)C(=O)N[C@@H](CC(C)C)C(=O)N[C@@H](CCCCC)C(=O)N2CCC[C@H]2C(=O)N[C@@H](C(C)C)C(=O)N[C@@H](CC(=O)O)C(=O)N[C@H](C(=O)N[C@@H](CO)C(=O)N[C@@H](CN)C(=O)N[C@@H](CCC(N)=O)C(=O)O)CSCC(=O)N[C@@H](Cc2ccc3ccccc3c2)C(=O)N[C@@H](Cc2ccc(O)cc2)C(=O)N[C@@H](CC(=O)O)C1=O [Example 1162] ({CH2CO}-[2Nal]YD[NHexGly]YVGRL[Ahp(2)]PVDCS[Dap]Q-OH; thioether N-14) | 35.3 nM | 
CCCCCCN1CC(=O)N[C@@H](Cc2ccc(O)cc2)C(=O)N[C@@H](C(C)C)C(=O)NCC(=O)N[C@@H](CCCNC(=N)N)C(=O)N[C@@H](CC(C)C)C(=O)N[C@@H](CCCCC)C(=O)N2CCC[C@H]2C(=O)N[C@@H](C(C)C)C(=O)N[C@@H](CC(=O)O)C(=O)N[C@H](C(=O)N[C@@H](CO)C(=O)N[C@@H](CCCCN)C(=O)N[C@@H](CC(N)=O)C(=O)O)CSCC(=O)N[C@@H](Cc2ccc3ccccc3c2)C(=O)N[C@@H](Cc2ccc(O)cc2)C(=O)N[C@@H](CC(=O)O)C1=O [Example 1163] ({CH2CO}-[2Nal]YD[NHexGly]YVGRL[Ahp(2)]PVDCSKN-OH; thioether N-14) | 22.6 nM | 
CCCCCCN1CC(=O)N[C@@H](Cc2ccc(O)cc2)C(=O)N[C@@H](C(C)C)C(=O)NCC(=O)N[C@@H](CCCNC(=N)N)C(=O)N[C@@H](CC(C)C)C(=O)N[C@@H](CCCCC)C(=O)N2CCC[C@H]2C(=O)N[C@@H](C(C)C)C(=O)N[C@@H](CC(=O)O)C(=O)N[C@H](C(=O)N[C@@H](CO)C(=O)N[C@@H](CCN)C(=O)N[C@@H](CC(N)=O)C(=O)O)CSCC(=O)N[C@@H](Cc2ccc3ccccc3c2)C(=O)N[C@@H](Cc2ccc(O)cc2)C(=O)N[C@@H](CC(=O)O)C1=O [Example 1164] ({CH2CO}-[2Nal]YD[NHexGly]YVGRL[Ahp(2)]PVDCS[Dab]N-OH; thioether N-14) | 9.8 nM | 
CCCCCCN1CC(=O)N[C@@H](Cc2ccc(O)cc2)C(=O)N[C@@H](C(C)C)C(=O)NCC(=O)N[C@@H](CCCNC(=N)N)C(=O)N[C@@H](CC(C)C)C(=O)N[C@@H](CCCCC)C(=O)N2CCC[C@H]2C(=O)N[C@@H](C(C)C)C(=O)N[C@@H](CC(=O)O)C(=O)N[C@H](C(=O)N[C@@H](CO)C(=O)N[C@@H](CCCCN)C(=O)N[C@@H](CCC(N)=O)C(=O)O)CSCC(=O)N[C@@H](Cc2ccc3ccccc3c2)C(=O)N[C@@H](Cc2ccc(O)cc2)C(=O)N[C@@H](CC(=O)O)C1=O [Example 1165] ({CH2CO}-[2Nal]YD[NHexGly]YVGRL[Ahp(2)]PVDCSKQ-OH; thioether N-14) | 28.2 nM | 
CCCCCCN1CC(=O)N[C@@H](Cc2ccc(O)cc2)C(=O)N[C@@H](C(C)C)C(=O)NCC(=O)N[C@@H](CCCNC(=N)N)C(=O)N[C@@H](CC(C)C)C(=O)N[C@@H](CCCCC)C(=O)N2CCC[C@H]2C(=O)N[C@@H](C(C)C)C(=O)N[C@@H](CC(=O)O)C(=O)N[C@H](C(=O)N[C@@H](CO)C(=O)N[C@@H](CCN)C(=O)N[C@@H](CCC(N)=O)C(=O)O)CSCC(=O)N[C@@H](Cc2ccc3ccccc3c2)C(=O)N[C@@H](Cc2ccc(O)cc2)C(=O)N[C@@H](CC(=O)O)C1=O [Example 1166] ({CH2CO}-[2Nal]YD[NHexGly]YVGRL[Ahp(2)]PVDCS[Dab]Q-OH; thioether N-14) | 18.8 nM | 
CCCCCCN1CC(=O)N[C@@H](Cc2ccc(O)cc2)C(=O)N[C@@H](CCCC)C(=O)N[C@@H](CC(=O)O)C(=O)N[C@@H](CCCNC(=N)N)C(=O)N[C@@H](CC(C)C)C(=O)N[C@@H](CCCCC)C(=O)N2CCC[C@H]2C(=O)N[C@@H](C(C)C)C(=O)N[C@@H](CC(=O)O)C(=O)N[C@H](C(=O)N[C@@H](CC(=O)O)C(N)=O)CSCC(=O)N[C@@H](Cc2ccccc2)C(=O)N[C@@H](Cc2c[nH]c3ccccc23)C(=O)N[C@@H](CC(=O)O)C1=O [Example 1352] ({CH2CO}-FWD[NHexGly]Y[Nle]DRL[Ahp(2)]PVDCD-NH2; thioether N-14) |  | 12.3 nM
CCCCCCN1CC(=O)N[C@@H](Cc2ccc(O)cc2)C(=O)N[C@@H](CCCC)C(=O)N[C@@H](CC(=O)O)C(=O)N[C@@H](CCCN)C(=O)N[C@@H](CC(C)C)C(=O)N[C@@H](CCCCC)C(=O)N2CCC[C@H]2C(=O)N[C@@H](C(C)C)C(=O)N[C@@H](CC(=O)O)C(=O)N[C@H](C(=O)N[C@@H](CC(=O)O)C(N)=O)CSCC(=O)N[C@@H](Cc2ccccc2)C(=O)N[C@@H](Cc2c[nH]c3ccccc23)C(=O)N[C@@H](CC(=O)O)C1=O [Example 1353] ({CH2CO}-FWD[NHexGly]Y[Nle]D[Orn]L[Ahp(2)]PVDCD-NH2; thioether N-14) |  | 11.3 nM
CCCCCCN1CC(=O)N[C@@H](Cc2ccc(O)cc2)C(=O)N[C@@H](CCCCC)C(=O)N[C@@H](CC(N)=O)C(=O)N[C@@H](CCCNC(=N)N)C(=O)N[C@@H](CC(C)C)C(=O)N[C@@H](CCCCC)C(=O)N2CCC[C@H]2C(=O)N[C@@H](C(C)C)C(=O)N[C@@H](CO)C(=O)N[C@H](C(=O)NCC(N)=O)CSCC(=O)N[C@@H](Cc2ccccc2)C(=O)N[C@@H](Cc2c[nH]c3ccccc23)C(=O)N[C@@H](CC(=O)O)C1=O [Example 1354] ({CH2CO}-FWD[NHexGly]Y[Ahp(2)]NRL[Ahp(2)]PVSCG-NH2; thioether N-14) |  | 20.3 nM
CCCCCCN1CC(=O)N[C@@H](Cc2ccc(O)cc2)C(=O)N[C@@H](CCCC)C(=O)N[C@@H](CC(=O)O)C(=O)N[C@@H](CCCN)C(=O)N[C@@H](CC(C)C)C(=O)N[C@@H](CCCCC)C(=O)N2CCC[C@H]2C(=O)N[C@@H](C(C)C)C(=O)N[C@@H](CO)C(=O)N[C@H](C(=O)NCC(=O)O)CSCC(=O)N[C@@H](Cc2ccccc2)C(=O)N[C@@H](Cc2c[nH]c3ccccc23)C(=O)N[C@@H](CC(=O)O)C1=O [Example 1355] ({CH2CO}-FWD[NHexGly]Y[Nle]D[Orn]L[Ahp(2)]PVSCG-OH; thioether N-14) |  | 33.8 nM
CCCCCCN1CC(=O)N[C@@H](Cc2ccc(O)cc2)C(=O)N[C@@H](CCCC)C(=O)N[C@@H](CC(=O)O)C(=O)N[C@@H](CCCNC(=N)N)C(=O)N[C@@H](CC(C)C)C(=O)N[C@@H](CCCCC)C(=O)N2CCC[C@H]2C(=O)N[C@@H](C(C)C)C(=O)N[C@@H](CO)C(=O)N[C@H](C(=O)NCC(=O)O)CSCC(=O)N[C@@H](Cc2ccccc2)C(=O)N[C@@H](Cc2c[nH]c3ccccc23)C(=O)N[C@@H](CC(=O)O)C1=O [Example 1356] ({CH2CO}-FWD[NHexGly]Y[Nle]DRL[Ahp(2)]PVSCG-OH; thioether N-14) |  | 28.7 nM
CCCCCCN1CC(=O)N[C@@H](Cc2ccc(O)cc2)C(=O)N[C@@H](CCCCC)C(=O)N[C@@H](CC(N)=O)C(=O)N[C@@H](CCCNC(=N)N)C(=O)N[C@@H](CC(C)C)C(=O)N[C@@H](CCCCC)C(=O)N2CCC[C@H]2C(=O)N[C@@H](C(C)C)C(=O)N[C@@H](CO)C(=O)N[C@H](C(=O)NCC(=O)O)CSCC(=O)N[C@@H](Cc2ccccc2)C(=O)N[C@@H](Cc2c[nH]c3ccccc23)C(=O)N[C@@H](CC(=O)O)C1=O [Example 1357] ({CH2CO}-FWD[NHexGly]Y[Ahp(2)]NRL[Ahp(2)]PVSCG-OH; thioether N-14) |  | 31.6 nM
CCCCCCN1CC(=O)N[C@@H](Cc2ccc(O)cc2)C(=O)N[C@@H](CC(C)C)C(=O)NCC(=O)N[C@@H](CCCNC(=N)N)C(=O)N[C@@H](CC(C)C)C(=O)N[C@@H](CCCCC)C(=O)N2CCC[C@H]2C(=O)N[C@@H](C(C)C)C(=O)N[C@@H](CO)C(=O)N[C@H](C(=O)NCC(N)=O)CSCC(=O)N[C@@H](Cc2ccccc2)C(=O)N[C@@H](Cc2c[nH]c3ccccc23)C(=O)N[C@@H](CC(=O)O)C1=O [Example 1358] ({CH2CO}-FWD[NHexGly]YLGRL[Ahp(2)]PVSCG-NH2; thioether N-14) |  | 19.5 nM
